According to US6372693B1, “Substituted 2-(3-alkenyl-benzoyl)-cyclohexane-1,3-diones” (BASF Aktiengesellschaft, priority 1997, dated 2002):

Experiments:
Test in all cases: greenhouse herbicidal test, post-emergence treatment
Format in all cases: in vivo
[1] = tested on: Chenopodium album; conditions: 0.5 or 0.25 kg/ha a.s., Chenopodium album (lambsquarters)
Procedure: (§1) The culture containers used were plastic flowerpots containing loamy sand with approximately 3.0% of humus as substrate. The seeds of the test plants were sown separately for each species.
(§2) For the purposes of post-emergence treatment, the test plants were grown to a plant height of from 3 to 15 cm, depending on the plant habit, and only then treated with the active ingredients which had been suspended or emulsified in water. To this end, the test plants were either sown directly and grown in the same containers, or they were first grown separately as seedlings and transplanted into the test containers a few days prior to treatment. The rate of application for the post-emergence treatment was 0.5 or 0.25 kg/ha a.s.
(§3) Depending on the species, the plants were kept at from 10-25° C. and 20-35° C., respectively. The test period extended over 2 to 4 weeks. During this time, the plants were tended, and their response to the individual treatments was evaluated.
(§4) Evaluation was carried out using a scale of from 0 to 100. 100 means no emergence of the plants, or complete destruction of at least the aerial parts, and 0 means no damage or normal course of growth.
(§5) The plants used in the greenhouse experiments belonged to the following species: […]

[2] = tested on: Polygonum persicaria; conditions: 0.5 or 0.25 kg/ha a.s., Polygonum persicaria (ladysthumb)
Procedure: as §1, §2, §3, §4, §5

[3] = tested on: Sinapis alba; conditions: 0.5 or 0.25 kg/ha a.s., Sinapis alba (white mustard)
Procedure: as §1, §2, §3, §4, §5

[4] = tested on: Solanum nigrum; conditions: 0.5 or 0.25 kg/ha a.s., Solanum nigrum (black nightshade)
Procedure: as §1, §2, §3, §4, §5

Measured: herbicidal action (control of the weed)

CC=Cc1c(Cl)ccc(C(=O)C2C(=O)CCCC2=O)c1Cl [Compound 2.1, 2-[2′,4′-Dichloro-3′-(prop-1″-en-1″-yl)benzoyl]-1,3-cyclo-hexanedione]
very good control: all assays above
